The assay concerns apoE−/− mice. The assay can be described thus: Atherosclerotic lesion size (morphometry) in apoE−/− mice on high fat diet with or without probucol. It counts as in vivo. Particulars: 24 weeks. An excerpt: Male C57BL/6J mice, homozygous for the disrupted apoE gene (apoE−/−) and originally purchased from Jackson Laboratories (Bar Harbor, Me.), were used at 8-10 weeks of age and then fed for 24 weeks ad libitum a high fat diet containing 21.2 (w/w) fat and 0.15% (w/w) cholesterol (specifications of the Harlan Teklad diet TD88137), without (controls, 103 mice) or with probucol (1% w/w, 87 mice), as described in Arteriosclerosis Thrombosis and Vascular Biology 2000, 20:e26-e33. The local animal ethics committee approved the study.
Procedures were carried out as described in Arteriosclerosis Thrombosis and Vascular Biology 2000, 20:e26-e33. For biochemistry, hearts and aortas past the femoral bifurcation were excised carefully (n=86 and 70 for control and probucol animals, respectively), cleaned, placed immediately in ice-cold buffer containing protease inhibitors and antibiotics, and then stored at −80° C. For histology, separate mice (n=17 each, for controls and probucol) were perfusion fixed, the hearts and aortas dissected and processed for blinded morphometry at the sinus, arch and descending thoracic and abdominal aorta, precisely as described in Arteriosclerosis Thrombosis and Vascular Biology 2000, 20:e26-e33. Mean areas from thoracic and abdominal aortas were similar and therefore combined and presented as a single value. For histology, sections at the sinus were taken ˜200 μm from the first appearance of the leaflets. Sections at the thoracic and abdominal aorta were taken at the branch point of the 3rd pair of intra-costal arteries and the celiac artery, respectively.
Data on lesion size are presented as mean±SEM and the effects of probucol analysed by the Mann-Whitney U-test. Biochemical parameters were compared using a one-way ANOVA or Mann-Whitney U-test. Data on total cell numbers, macrophages and collagen content are expressed as mean±SD, and significant differences between means evaluated using the Student's t-test. Statistical significance was accepted at p<0.05.

The results in this text go back to patent US20100004333A1, “COMPOSITIONS AND METHODS FOR TREATING CARDIOVASCULAR DISORDERS” (priority 2004, published 2010).

On to `CC(C)(Sc1cc(C(C)(C)C)c(O)c(C(C)(C)C)c1)Sc1cc(C(C)(C)C)c(O)c(C(C)(C)C)c1` [probucol], for which the Lesion size is, setting by setting: (Arch, 1% probucol, mean ± SEM, 17 mice) 121 ± 27^a μm^2 × 10^−3; (Sinus, 1% (w/w) probucol in high fat diet, mean ± SEM, 17 mice) 904 ± 56 μm^2 × 10^−3; (Thoracic/Abdominal, 1% probucol, mean ± SEM, 17 mice) 7 ± 2^a μm^2 × 10^−3; (arch, 1% probucol) 0.12±0.03 mm^2; (descending aorta, 1% probucol) 7,300±2,400 μm^2; (sinus, 1% probucol) 0.90±0.56 mm^2. Besides, the “Inhibition of disease (lesion size) versus control” value runs as follows: (arch, 1% probucol, not significant) 36%; (descending aorta, 1% probucol, p<0.0001) 94%. For the setting “sinus, 1% probucol, p<0.01”, the “Increase in lesion size versus control” value came to 33%.
